pEC50: −log10 of the molar value.
Assays:
LXRβ full length (FL) = biological target: T1, LXRβ full length (FL) (Homo sapiens, UniProt P55055, INS174Q); assay: LXR Gal4 reporter transient transfection assay, mammalian two-hybrid, FL-M2H Gal4β; format: cell-based; details: HEK293 cells; inverse agonist unless *
T1 construct: the full length (FL) proteins of LXRα (amino acids 1-447); NP005684; NP009052; expressed in transfected cells; host or cells: HEK293
T1 sequence (P55055 with tags, fused parts or gaps INS174Q): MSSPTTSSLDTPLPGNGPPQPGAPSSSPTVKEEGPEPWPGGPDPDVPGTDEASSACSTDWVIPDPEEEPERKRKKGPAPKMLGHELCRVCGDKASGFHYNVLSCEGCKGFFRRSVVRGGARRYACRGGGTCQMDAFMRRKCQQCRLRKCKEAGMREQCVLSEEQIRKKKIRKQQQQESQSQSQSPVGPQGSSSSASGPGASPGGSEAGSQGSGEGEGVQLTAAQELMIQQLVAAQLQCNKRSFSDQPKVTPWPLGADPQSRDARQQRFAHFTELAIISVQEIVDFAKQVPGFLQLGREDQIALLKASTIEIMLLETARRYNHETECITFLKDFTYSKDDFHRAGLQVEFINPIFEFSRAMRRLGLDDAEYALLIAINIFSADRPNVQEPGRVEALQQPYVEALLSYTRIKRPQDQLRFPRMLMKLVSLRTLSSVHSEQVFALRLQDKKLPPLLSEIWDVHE
Outline: (§1)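 Mammalian two-hybrid read-out: interaction of LXRα or LXRβ (full length or ligand-binding domain, NFkB activation-domain fusions) with GAL4-fused SRC1 or NCoR domains drives GAL4-responsive firefly luciferase in HEK293 cells, normalised by Renilla cotransfection. Compounds given 4 h after transfection, ≤0.2% vehicle, cells lysed after 16 h.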

LXRα full length (FL) = biological target: T2, LXRα full length (FL) (Homo sapiens, UniProt Q13133); assay: LXR Gal4 reporter transient transfection assay, mammalian two-hybrid, FL-M2H Gal4α; format: cell-based; details: HEK293 cells; inverse agonist unless *
T2 construct: the full length (FL) proteins of LXRα (amino acids 1-447); NP005684; expressed in transfected cells; host or cells: HEK293
T2 sequence (Q13133 1-447): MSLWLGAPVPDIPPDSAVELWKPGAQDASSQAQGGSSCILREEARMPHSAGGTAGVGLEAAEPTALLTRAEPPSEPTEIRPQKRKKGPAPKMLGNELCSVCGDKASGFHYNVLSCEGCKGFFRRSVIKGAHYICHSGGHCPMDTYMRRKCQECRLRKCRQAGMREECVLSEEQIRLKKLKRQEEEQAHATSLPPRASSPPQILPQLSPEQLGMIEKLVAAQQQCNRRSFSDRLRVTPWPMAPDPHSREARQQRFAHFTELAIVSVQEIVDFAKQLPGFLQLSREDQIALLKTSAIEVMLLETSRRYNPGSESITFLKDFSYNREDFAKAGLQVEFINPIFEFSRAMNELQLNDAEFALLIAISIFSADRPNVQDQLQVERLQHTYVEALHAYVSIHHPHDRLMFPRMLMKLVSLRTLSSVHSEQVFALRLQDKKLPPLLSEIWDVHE
Outline: as §1

[1] = biological target: T3, GST-LXRβ ligand-binding domain (Homo sapiens, UniProt P55055, INS174Q); assay: TR-FRETβ activity assay (NCoA3 coactivator peptide recruitment); format: biochemical; details: 1 μM 24(S)-25-epoxycholesterol as prestimulating agonist; inverse agonist unless *
T3 construct: amino acids 156-461; NP009052; made in house; host or cells: E. coli
T3 sequence (P55055 with tags, fused parts or gaps INS174Q limits assumed): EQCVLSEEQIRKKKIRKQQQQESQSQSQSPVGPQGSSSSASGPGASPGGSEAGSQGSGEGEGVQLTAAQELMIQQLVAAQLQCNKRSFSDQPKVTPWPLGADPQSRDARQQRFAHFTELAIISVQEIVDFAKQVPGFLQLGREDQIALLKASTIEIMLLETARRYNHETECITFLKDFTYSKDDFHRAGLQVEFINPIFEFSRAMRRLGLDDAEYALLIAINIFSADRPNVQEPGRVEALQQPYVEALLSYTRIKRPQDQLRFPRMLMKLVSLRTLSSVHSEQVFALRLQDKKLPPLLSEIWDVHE
Outline: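 Coactivator recruitment read as TR-FRET (ex 340, em 615 and 665 nm) after 1 h equilibration at 4° C, in triplicate. Mix held 76 nM GST-tagged LXRβ LBD (aa 156-461, E. coli), 400 nM biotin-NCoA3 peptide, Tb-cryptate anti-GST, streptavidin-XL665, 240 mM KCl buffer.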

| pEC50 (LXRβ full length (FL)) | pEC50 (LXRα full length (FL)) | pEC50 [1] | FRETβ [1] | SMILES |
| --- | --- | --- | --- | --- |
| > 7.00 | > 7.00 | 6.00 to 7.00 |  | CCc1cc(-c2cncc(C(C)(C)C(=O)O)c2)ccc1CN(Cc1ccc(C(F)(F)F)o1)C(=O)c1c(C)ccc2ccccc12 [27/65] |
| 6.00 to 7.00 | 6.00 to 7.00 | 6.00 to 7.00 |  | CONC(=O)CS(=O)(=O)c1cccc(-c2ccc(CN(Cc3ccc(C(F)(F)F)o3)Cc3c(C)cc(C)cc3C)cc2)c1 [Example 5/1] |
| > 7.00 | > 7.00 | 5.00 to 6.00 |  | COC(C)(C(=O)O)c1cccc(-c2ccc(CN(Cc3ccc(C(F)(F)F)o3)C(=O)c3c(C)ccc4ccccc34)cc2)c1 (stereo not drawn) [27/11] |
| > 7.00 | > 7.00 | > 7.00 |  | Cc1ccc2ccccc2c1C(=O)N(Cc1ccc(-c2cccc([C@H](C)C(=O)O)c2)cc1)Cc1cccc(C(F)(F)F)c1 [27/83] |
| > 7.00 | > 7.00 | > 7.00 |  | Cc1ccc2ccccc2c1C(=O)N(Cc1ccc(C(F)(F)F)o1)Cc1c(F)cc(-c2cccc(C(C)(C)C(=O)O)c2)cc1Cl [27/6] |
| 6.00 to 7.00 | 5.00 to 6.00 | 5.00 to 6.00 |  | Cc1cc(C)c(CN(Cc2ccc(-c3cccc(S(=O)(=O)CC(=O)NS(C)(=O)=O)c3)cc2)Cc2ccc(C(F)(F)F)o2)c(C)c1 [Example 2] |
| 6.00 to 7.00 | 5.00 to 6.00 | 6.00 to 7.00 |  | O=C(O)CS(=O)(=O)c1cccc(-c2ccc(CN(Cc3ccc(C(F)(F)F)o3)C(=O)c3c(OC(F)F)ccc4ccccc34)cc2)c1 [27/42] |
| 6.00 to 7.00 | 6.00 to 7.00 |  | B* | CC12CC3(C)CC(C)(C1)CC(C(=O)N(Cc1ccc(-c4cccc(C(C)(C)C(=O)O)c4)cc1)Cc1ccc(C(F)(F)F)o1)(C2)C3 [27/51] |
| > 7.00 | > 7.00 | 6.00 to 7.00 |  | Cc1ccc2ccccc2c1CN(Cc1ccc(-c2cccc([C@H](C)C(=O)O)c2)cc1)Cc1ccc(C(F)(F)F)o1 [27/73] |
| > 7.00 | 6.00 to 7.00 | 6.00 to 7.00 |  | Cc1c(CN(Cc2ccc(-c3cccc(C(C)(C)C(=O)O)c3)cc2)Cc2ccc(C(F)(F)F)o2)c2ccccc2[nH]c1=O [27/22] |
| > 7.00 | 6.00 to 7.00 | 6.00 to 7.00 |  | CC(C)(C(=O)O)c1cccc(-c2ccc(CN(Cc3ccc(C(F)(F)F)o3)C(=O)c3cc(C4CC4)nc4ccccc34)cc2)c1 [27/129] |
| > 7.00 | > 7.00 | 6.00 to 7.00 |  | Cc1cc(C)c(CN(Cc2ccc(-c3cccc(C(C)(C)C(=O)O)c3)cc2)Cc2ccc(C(F)(F)F)o2)c2c1CCC2 [27/33] |
| 6.00 to 7.00 | 5.00 to 6.00 | 5.00 to 6.00 |  | Cc1cc(C)c(CN(Cc2ccc(-c3cccc(S(=O)(=O)CC(=O)O)c3)cc2)Cc2ccc(C(F)(F)F)o2)c(C)c1C [27/34] |
| > 7.00 | > 7.00 | 6.00 to 7.00 |  | CCc1ccc2ccccc2c1CN(Cc1ccc(-c2cccc(C(C)(C)C(=O)O)c2)cc1)Cc1ccc(C(F)(F)F)o1 [27/52] |
| > 7.00 | > 7.00 | 6.00 to 7.00 |  | COCc1c(C)cc(C)c(CN(Cc2ccc(-c3cccc(C(C)(C)C(=O)O)c3)cc2)Cc2ccc(C(F)(F)F)o2)c1C [27/71] |
| > 7.00 | > 7.00 | 6.00 to 7.00 |  | Cc1nc2cccnc2c(C(=O)N(Cc2ccc(-c3cc(F)cc(C4(C(=O)O)CC4)c3)cc2)Cc2ccc(C(F)(F)F)o2)c1C [27/113] |
| 6.00 to 7.00 | 6.00 to 7.00 | < 5.00 |  | Cc1ccc2ccccc2c1C(=O)N(Cc1ccc(C(F)(F)F)o1)C1COc2cc(-c3cccc(C(C)(C)C(=O)O)c3)ccc21 (stereo not drawn) [27/4] |

| pEC50 (LXRβ full length (FL)) | pEC50 (LXRα full length (FL)) | pEC50 [1] | FRETβ [1] | SMILES |
| --- | --- | --- | --- | --- |
| 5.00 to 6.00 | 6.00 to 7.00 | < 5.00 |  | Cc1ccc2ccccc2c1C(=O)N(Cc1ccc(-c2cccc(S(=O)(=O)CC(=O)O)c2)cc1)Cc1ccc(C(F)(F)F)n1C [Example 28, 2-((4′-((2-Methyl-N-((1-methyl-5-(trifluoromethyl)-1H-pyrrol-2-yl)methyl)-1-naphthamido)methyl)-[1,1′-biphenyl]-3-yl)sulfonyl)acetic acid] |
| 6.00 to 7.00 | 6.00 to 7.00 | 6.00 to 7.00 |  | Cc1nc2ccccn2c1C(=O)N(Cc1ccc(-c2cccc(C(C)(C)C(=O)O)c2)cc1)Cc1ccc(C(F)(F)F)o1 [27/118] |
| > 7.00 | 6.00 to 7.00 | 6.00 to 7.00 |  | Cc1nc2ncccc2c(C(=O)N(Cc2ccc(-c3cccc(C(C)(C)C(=O)O)c3)cc2)Cc2ccc(C(F)(F)F)o2)c1C [27/92] |
| > 7.00 | > 7.00 | 6.00 to 7.00 |  | CC(C)(C(=O)O)c1cccc(-c2ccc(CN(Cc3ccc(C(F)(F)F)o3)C(=O)c3c4c(nc5ccccc35)CCCC4)cc2)c1 [27/55] |
| > 7.00 | > 7.00 | 6.00 to 7.00 |  | Cc1nc2ccccc2c(C(=O)N(Cc2ccc(C(F)(F)F)o2)Cc2ncc(-c3cccc(C(C)C(=O)O)c3)cc2Cl)c1C (stereo not drawn) [27/90] |
| 5.00 to 6.00 | 5.00 to 6.00 | 5.00 to 6.00 |  | Cc1ccc2ccccc2c1C(=O)N(Cc1ccc(-c2cccc(S(=O)(=O)CC(=O)O)c2)cc1)Cc1ccc(C(F)(F)F)[nH]1 [27/3] |
| 6.00 to 7.00 | 6.00 to 7.00 | < 5.00 |  | CNc1nc(-c2cccc(C(C)(C)C(=O)O)c2)ccc1CN(Cc1ccc(C(F)(F)F)o1)C(=O)c1c(C)ccc2ccccc12 [Example 32, 2-Methyl-2-(3-(5-((2-methyl-N-((5-(trifluoromethyl)furan-2-yl)methyl)-1-naphthamido)methyl)-6-(methylamino)pyridin-2-yl)phenyl)propanoic acid] |
| > 7.00 | > 7.00 | 6.00 to 7.00 |  | Cc1cc(C(=O)N(Cc2ccc(C(F)(F)F)o2)Cc2ccc(-c3cccc(C(C)(C)C(=O)O)c3)cc2Cl)c2ncccc2n1 [27/123] |
| 6.00 to 7.00 | 6.00 to 7.00 | 5.00 to 6.00 |  | O=C(O)CS(=O)(=O)c1cccc(-c2ccc(CN(Cc3ccc(C(F)(F)F)o3)Cc3cccc4ccccc34)cc2)c1 [7/2] |
| > 7.00 | 6.00 to 7.00 | 6.00 to 7.00 |  | Cc1ccc2ccccc2c1C(=O)N(Cc1ccc(C(F)(F)F)o1)Cc1ccc(-c2cncc(C(C)(C)C(=O)O)c2)cc1OC(F)F [27/64] |
| > 7.00 | > 7.00 | > 7.00 |  | Cc1ccc2cnccc2c1C(=O)N(Cc1ccc(-c2cccc(C(C)(C)C(=O)O)c2)cc1)Cc1ccc(C(F)(F)F)o1 [27/86] |
| > 7.00 | > 7.00 | > 7.00 |  | Cc1cc(C)c([N+](=O)[O-])c(C)c1C(=O)N(Cc1ccc(-c2cccc(C(C)(C)C(=O)O)c2)cc1)Cc1ccc(C(F)(F)F)o1 [27/46] |
| > 7.00 | > 7.00 | 6.00 to 7.00 |  | Cc1nc2cccnc2c(C(=O)N(Cc2ccc(-c3cccc(C(C)C(=O)O)c3)cc2)Cc2ccc(C(F)(F)F)o2)c1C (stereo not drawn) [27/110] |
| > 7.00 | > 7.00 | 6.00 to 7.00 |  | COc1cc(-c2cccc(C(C)(C)C(=O)O)c2)ccc1CN(Cc1ccc(C(F)(F)F)o1)C(=O)c1c(C)c(C)nc2cccnc12 [27/108] |
| > 7.00 | 6.00 to 7.00 | 5.00 to 6.00 |  | Cc1ccc2ccccc2c1C(=O)N(Cc1ccc(-c2cccc(C(C)(C)C(=O)O)c2)cc1)Cc1ccc(C(C)(C)C)o1 [27/1] |
| > 7.00 | > 7.00 | 6.00 to 7.00 |  | Cc1ccc2ccccc2c1C(=O)N(Cc1ccc(-c2cccc(C(C)(C)C(=O)O)c2)cc1)C1CCc2ccc(C(F)(F)F)cc21 (stereo not drawn) [27/5] |
